Measurements taken from patent US20250129021A1, “SMALL MOLECULE PROTEIN SYNTHESIS MODULATORS” (Interdict Bio, Inc., priority 2023, published 2025).
Like-named read-outs stand apart in the source and are kept apart here.

Assays:
MYC = assay: In vitro transcription-translation (IVTT) assay, MYC reporter; format: biochemical; conditions: HeLa S3 lysate, 2 hrs at 30° C.
How it was run: (§1)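 Reporter: mCherry, P2A, then 3×FLAG-target peptide-sfGFP fusion, IRES-initiated; HeLa S3 lysate IVTT; cpd dilutions 30 μM−0.1 μM half-log in 100% DMSO (dilution-plate conc); DNA added last; 2 h, 30° C; PBS quench.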

CCND1 = assay: In vitro transcription-translation (IVTT) assay, CCND1 reporter; format: biochemical; conditions: HeLa S3 lysate, sfGFP/mCherry ratio, 2 hrs at 30° C.
How it was run: as §1

MCL-1 = assay: In vitro transcription-translation (IVTT) assay, MCL-1 reporter; format: biochemical; conditions: HeLa S3 lysate, sfGFP/mCherry ratio
How it was run: as §1

HEK 293T = assay: Cell viability (CellTiter-Fluor), HEK 293T; format: cell-based; conditions: Homo sapiens, 24-72 hrs
Description: (§2) Count and dispense 2,000-10,000 cells per well (100 μL volume) in black 96-well tissue culture microplate and let cells adhere overnight. Add compound dissolved in 100% DMSO to each well as needed and incubate cells in standard culture conditions for 24-72 hrs. Final DMSO concentration in each well should be 0.1-0.5%. At the desired time point, gently aspirate compound containing media and replace with PBS to wash. Repeat wash step for 2 total washes. Remove PBS and add 100 μL CellTiter-Fluor reagent (Promega) reagent to each well. Seal plate and incubate 1 hr at room temperature with orbital shaking. Analyze fluorescence using plate reader to quantify viable cells compared with vehicle (DMSO) control.

MCF7 = assay: Cell viability (CellTiter-Fluor), MCF7; format: cell-based; conditions: Homo sapiens, 24-72 hrs
Description: as §2

BCL-2 = assay: In vitro transcription-translation (IVTT) assay, BCL-2 reporter; format: biochemical; conditions: HeLa S3 lysate, sfGFP/mCherry ratio, 2 hrs at 30° C.
How it was run: as §1

ALK = assay: In vitro transcription-translation (IVTT) assay, ALK reporter; format: biochemical; conditions: HeLa S3 lysate, sfGFP/mCherry ratio, 2 hrs at 30° C.
How it was run: as §1

CCNE1 = assay: In vitro transcription-translation (IVTT) assay, CCNE1 reporter; format: biochemical; conditions: HeLa S3 lysate, sfGFP/mCherry ratio
Description: In vitro transcription-translation assay setup: Each assay includes a master mix containing lysate and shared components, a 96-well plate containing compound titrations for testing, a 96-well DNA plate with reporter constructs to be tested, 96-well skirted PCR plates, and 96-well flat-bottom, black, fluorescent assay plates. Reaction materials setup: (A) Master mix—15 mL conical tube (3 mL of HeLa S3 Lysate described above; 0.6 mL of ThermoFisher Accessory Proteins (#88882); 1.2 ml of ThermoFisher Reaction Mix (#88882); 0.54 mL of nuclease-free Water); (B) 96-Well Master Mix+Compound Plate (Half-log dilutions (30 μM−0.1 μM) of 4 compounds of interest are prepared in 100% DMSO); 96-Well DNA Plate (Five DNA constructs are plated into single columns within the plate. Row 1 of the column contains nuclease free H2O, all other wells contain 110 ng/μL plasmid DNA). Reactions are started by mixing 155 μL of master mix and 3.5 μL of compound serial dilutions, then 9.1 μL of master mix+compound mixture is aliquoted across 5 96-well plates. Reactions begin with final addition of 2 μL of DNA for a 11.1 μL reaction volume in each well. The entire plate is sealed, and incubated for 2 hrs at 30° C. After 2 hrs, quench the assay using 45 μL of PBS, and transfer 50 μL to a flat-bottom black microplate Quantify the sfGFP and mCherry signals from each well on each plate, taking 3 reads of each plate, and perform data analysis below.
In vitro transcription-translation assay data analysis: Each plate is read three times in channels for both sfGFP and mCherry signals. The average signal across these 3 reads is then calculated for further analysis. Control wells containing no DNA reporter are subtracted from reporter wells in the same column to remove auto-fluorescence of the lysate. Then, the ratio of sfGFP/mCherry is calculated per well, and these ratios are averaged across the triplicate experiments on the same plate. Finally, the ratio of each titration concentration is normalized to the no drug control to create the normalized stalling metric. The error on this measurement is determined by propagating error through the averaging and normalization steps. Values are plotted and fit for IC50 determination for each test sequence and titration of compound.

[1] = IVTT assay, MYC reporter, normalized sfGFP/mCherry ratio, half-log dilutions 30 μM-0.1 μM
[2] = IVTT assay, read-out: MCL1 IC50

IC50 (MYC; sfGFP/mCherry ratio) [µM]	IC50 (CCND1) [µM]	IC50 (MCL-1; 2 hrs at 30° C.) [µM]	IC50 (MCF7) [µM]	IC50 (BCL-2) [µM]	IC50 (ALK) [µM]	IC50 (MCL-1; [2]) [µM]	IC50 (CCNE1) [µM]	Structure (SMILES)	IC50 (HEK 293T) [µM]	IC50 (MYC; [1]) [µM]
< 10	< 10	< 10	1 to 4	–	–	–	–	COc1ccc(C[C@H]2NC[C@H](O)[C@H]2OC(=O)NCCc2cnc(N)[nH]2)cc1 [Cmpd V187594]	≥ 4	–
< 10	–	< 10	1 to 4	< 10	–	–	–	COc1ccc(C[C@H]2NC[C@H](O)[C@H]2OC(=O)NCCc2cnn[nH]2)cc1 [Cmpd V187783]	0.25 to 1	–
< 10	< 10	< 10	1 to 4	10 to 20	–	–	–	COc1ccc(C[C@H]2NC[C@H](O)[C@H]2OC(=O)NCC[C@H]2CCNC2)cc1 [Cmpd V187879]	≥ 4	–
< 10	< 10	< 10	1 to 4	–	< 10	–	–	COc1ccc(C[C@H]2NC[C@H](O)[C@H]2OC(=O)NCCn2ccnc2)cc1 [V187819, (2R,3S,4S)-4-hydroxy-2-[(4-methoxyphenyl)methyl]pyrrolidin-3-yl N-[2-(imidazol-1-yl)ethyl]carbamate]	≥ 4	–
< 10	10 to 20	< 10	–	10 to 20	–	–	–	COc1ccc(C[C@H]2NC[C@H](O)[C@H]2OC(=O)NCCc2nc[nH]c2C)cc1 [V187823, (2R,3S,4S)-4-hydroxy-2-[(4-methoxyphenyl)methyl]pyrrolidin-3-yl N-[2-(5-methyl-1H-imidazol-4-yl)ethyl]carbamate]	≥ 4	–
20 to 30	10 to 20	10 to 20	≥ 4	20 to 30	–	–	–	COc1ccc(C[C@H]2NC[C@H](O)[C@H]2OC(=O)NCCNc2ncc[nH]2)cc1 [V187825, (2R,3S,4S)-4-hydroxy-2-[(4-methoxyphenyl)methyl]pyrrolidin-3-yl N-[2-(1H-imidazol-2-ylamino)ethyl]carbamate]	≥ 4	–
< 10	20 to 30	10 to 20	1 to 4	20 to 30	–	–	–	COc1ccc(C[C@H]2NC[C@H](O)[C@H]2OC(=O)NCCNc2nccs2)cc1 [V187826, (2R,3S,4S)-4-hydroxy-2-[(4-methoxyphenyl)methyl]pyrrolidin-3-yl N-[2-(1,3-thiazol-2-ylamino)ethyl]carbamate]	1 to 4	–
< 10	< 10	< 10	–	10 to 20	–	–	–	COc1ccc(C[C@H]2NC[C@H](O)[C@H]2OC(=O)NCCNc2cc[nH]n2)cc1 [V187827, (2R,3S,4S)-4-hydroxy-2-[(4-methoxyphenyl)methyl]pyrrolidin-3-yl N-[2-(1H-pyrazol-3-ylamino)ethyl]carbamate]	≥ 4	–
–	10 to 20	< 10	1 to 4	10 to 20	–	–	–	CNC(=O)CNC(=O)O[C@@H]1[C@@H](O)CN[C@@H]1Cc1ccc(OC)cc1 [V188017, (2R,3S,4S)-4-hydroxy-2-[(4-methoxyphenyl)methyl]pyrrolidin-3-yl N-[(methylcarbamoyl)methyl]carbamate]	1 to 4	–
–	–	–	–	–	–	< 10	< 10	O=C(NCc1cccc(OC(F)F)c1)O[C@@H]1[C@@H](O)CN[C@@H]1Cc1ccc(-c2cnco2)cc1 [V193068, (2R,3S,4S)-4-hydroxy-2-(4-(oxazol-5-yl)benzyl)pyrrolidin-3-yl (3-(difluoromethoxy)benzyl)carbamate]	–	< 10
–	–	–	–	–	–	< 10	< 10	O=C(NCCc1cccc(F)c1)O[C@@H]1[C@@H](O)CN[C@@H]1Cc1ccc(-c2cnco2)cc1 [V193069, (2R,3S,4S)-4-hydroxy-2-(4-(oxazol-5-yl)benzyl)pyrrolidin-3-yl (3-fluorophenethyl)carbamate]	–	< 10
–	–	–	–	–	–	< 10	< 10	O=C(NCc1cc(F)cc(F)c1)O[C@@H]1[C@@H](O)CN[C@@H]1Cc1ccc(-c2cnco2)cc1 [V193071, (2R,3S,4S)-4-hydroxy-2-(4-(oxazol-5-yl)benzyl)pyrrolidin-3-yl (3,5-difluorobenzyl)carbamate]	–	< 10
–	–	–	–	–	–	< 10	< 10	O=C(NCc1cnn(C(F)F)c1)O[C@@H]1[C@@H](O)CN[C@@H]1Cc1ccc(-c2cnco2)cc1 [V193078, (2R,3S,4S)-4-hydroxy-2-(4-(oxazol-5-yl)benzyl)pyrrolidin-3-yl ((1-(difluoromethyl)-1H-pyrazol-4-yl)methyl)carbamate]	–	< 10
–	–	–	–	–	–	< 10	< 10	O=C(NCc1cccc(F)c1)O[C@@H]1[C@@H](O)CN[C@@H]1Cc1ccc(-c2cnn(C(F)F)c2)cc1 [V193079, (2R,3S,4S)-2-(4-(1-(difluoromethyl)-1H-pyrazol-4-yl)benzyl)-4-hydroxypyrrolidin-3-yl (3-fluorobenzyl)carbamate]	–	< 10
–	–	–	–	–	–	< 10	< 10	O=C(NCC[C@@H]1CCCN1)O[C@@H]1[C@@H](O)CN[C@@H]1Cc1ccc(-c2cnn(C(F)F)c2)cc1 [V193080, (2R,3S,4S)-2-(4-(1-(difluoromethyl)-1H-pyrazol-4-yl)benzyl)-4-hydroxypyrrolidin-3-yl (2-((S)-pyrrolidin-2-yl)ethyl)carbamate]	–	< 10
–	–	–	–	–	–	< 10	< 10	O=C(NCC[C@@H]1CCNC1)O[C@@H]1[C@@H](O)CN[C@@H]1Cc1ccc(-c2cnn(C(F)F)c2)cc1 [V193081, (2R,3S,4S)-2-(4-(1-(difluoromethyl)-1H-pyrazol-4-yl)benzyl)-4-hydroxypyrrolidin-3-yl (2-((S)-pyrrolidin-3-yl)ethyl)carbamate]	–	< 10
–	–	–	–	–	–	< 10	< 10	N#Cc1csc(-c2ccc(C[C@H]3NC[C@H](O)[C@H]3OC(=O)NCc3cccc(F)c3)cc2)c1 [V193129, (2R,3S,4S)-2-(4-(4-cyanothiophene-2-yl)benzyl)-4-hydroxypyrrolidin-3-yl (3-fluorobenzyl)carbamate]	–	< 10
–	–	–	–	–	–	< 10	< 10	O=C(NCc1cccc2c1CNC2)O[C@@H]1[C@@H](O)CN[C@@H]1Cc1ccc(C(F)F)cc1 [V193139, (2R,3S,4S)-2-(4-(difluoromethyl)benzyl)-4-hydroxypyrrolidin-3-yl (isoindolin-4-ylmethyl)carbamate]	–	< 10
–	–	–	–	–	–	< 10	10 to 20	O=C(NCc1cccc(F)c1)O[C@@H]1[C@@H](O)CN[C@@H]1Cc1ccc(-c2cc(C(F)F)cs2)cc1 [V193142, (2R,3S,4S)-2-(4-(4-(difluoromethyl)thiophen-2-yl)benzyl)-4-hydroxypyrrolidin-3-yl (3-fluorobenzyl)carbamate]	–	< 10
–	–	–	–	–	–	< 10	< 10	O=C(NCc1ccc2c(c1)CNC2)O[C@@H]1[C@@H](O)CN[C@@H]1Cc1ccc(-c2cc(C(F)F)cs2)cc1 [V193165, (2R,3S,4S)-2-(4-(4-(difluoromethyl)thiophen-2-yl)benzyl)-4-hydroxypyrrolidin-3-yl (isoindolin-5-ylmethyl)carbamate]	–	< 10
–	–	–	–	–	–	< 10	< 10	O=C(NCc1cccc(C2CNC2)c1)O[C@@H]1[C@@H](O)CN[C@@H]1Cc1ccc(-c2cc(C(F)F)cs2)cc1 [V193243, (2R,3S,4S)-2-(4-(4-(difluoromethyl)thiophen-2-yl)benzyl)-4-hydroxypyrrolidin-3-yl (3-(azetidin-3-yl)benzyl)carbamate]	–	< 10
